# Laboratory results as given in patent publication EP0195397A1, “m-Cyanophenethanolamines as animal growth promoters and antilipogenic agents” (AMERICAN CYANAMID COMPANY, priority 1985, dated 1986).
# Like-named read-outs stand apart in the source and are kept apart here.
# Tests used:
# [1] = biological target: T1, Beta-1 adrenergic receptor membranes (Meleagris gallopavo, UniProt P07700); experiment: Beta-1 adrenergic activity by (H3) dihydroalprenolol radioligand binding to receptor membranes; design: species or system turkey
# T1 construct: Freshly drawn heparinized whole blood from turkeys and rats is centrifuged; from tissue; host or cells: erythrocyte membranes from freshly drawn turkey blood
# Experimental: Beta-1 adrenergic activity of experimental compounds is identified by radioactive ligand-binding studies by using beta adrenergic receptor membranes and adrenergic antagonist (H3) dihydroalprenolol (DHA). Binding of (H3) DHA to membrane fractions is assayed by filtration on glass fiber filters. Specific binding is defined as total radioactivity bound minus nonspecific bound radioactivity, i.e., binding in the presence of 100 µM non-radioactive DHA. Results are expressed as the concentrations of the compound required to displace […] radioactive ligand from binding of beta adrenergic receptors (K-50).
# In these tests, beta adrenergic receptor membranes are incubated with radioactive dihydroalprenolol (H3 DHA) and experimental compounds. The bound radio- ligand is separated by filtration on glass fiber filters and counted by scintillation counter.
# Beta-1 adrenergic receptor membranes are isolated from turkey and rat erythrocytes respectively using the procedures of: • Hancock, A., DeLean, A., Lefkowitz, R. J. Mol. Pharmacol. 16:1, 1979; • DeLean, A, Hancock A., Lefkowitz, R. J. Mol. Pharmacol. 21:5, 1979; or • Lefkowitz, R. J., Stadel, J. M., and Caron, M. G. Ann. Rev. Biochem 52:157, 1983.
# Freshly drawn heparinized whole blood from turkeys and rats is centrifuged for five minutes ([…]). The plasma is withdrawn; the remaining erythrocytes are suspended in 150mM sodium chloride solutions and centrifuged. The cells are resuspended and centrifuged twice more. […] The protein concentration of receptor membranes is determined by the biuret method.
# To duplicate incubation, tubes are added 200 µl suspended membranes (200 µg protein), 25 µl of compound in solution or buffer and 25 µl (H3) dihydroalprenolol ([…]). […] The filters are rinsed three times with 5 mL of cold buffer (145 mM NaCl, 1 mM ethylenediaminetetraacetic acid, and 10 mM tris, pH 7.4) and subsequently counted by liquid scintillation counter in 10 mL of aquasol. […]
# [2] = Evaluation of test compounds as animal growth promoters and antilipogenic agents - mouse test; assay type: in vivo, CFI female mice; settings: 12-day test period; for Gain (grams): weight gain per cage of ten mice; for % Reduction in fat pad weight vs controls: right uterine fat pad, minus sign = reduction
# Experimental: CFI female mice from Carworth Farms are received when they are six-weeks old. They are housed ten to a cage in air-conditioned rooms (22 °C to 25 °C) with automatically-controlled lights, 14 hours on and ten hours off. The basal diet used in these studies is Purina Laboratory Chow (see description below) which is supplied ad libitum. The following is a description of the diet to which the growth-promoting compounds were added. Thirteen days after arrival, the mice are weighed in groups of ten and assigned at random to the different treatments. Each of the treatments is tested in three replicates, i.e., in three cages of ten mice each. There are ten cages of ten control mice each. Drugs are mixed in the diet at the dosage level indicated. Feed and water are offered ad libitum for a 12-day test period. Feed spilled is collected during the test period. At the end of the test period, the collected feed is weighed, and the mean feed consumption per cage of ten mice is determined for each treatment. The mice are weighed as a group of ten, and the weight gain determined. The mice are sacrificed by cervical dislocation. The right uterine fat pad of each mouse is removed. The fat pads for each cage of ten mice are weighed as a unit. Reduction in fat pad weights of animals is generally indicative of a reduction of total body fat of the treated animals.
# [3] = concentration required to displace 50% radioactive ligand ((H3) DHA), 23°C, one hour, read-out: β1 K-50
# T1 sequence (P07700 whole entry): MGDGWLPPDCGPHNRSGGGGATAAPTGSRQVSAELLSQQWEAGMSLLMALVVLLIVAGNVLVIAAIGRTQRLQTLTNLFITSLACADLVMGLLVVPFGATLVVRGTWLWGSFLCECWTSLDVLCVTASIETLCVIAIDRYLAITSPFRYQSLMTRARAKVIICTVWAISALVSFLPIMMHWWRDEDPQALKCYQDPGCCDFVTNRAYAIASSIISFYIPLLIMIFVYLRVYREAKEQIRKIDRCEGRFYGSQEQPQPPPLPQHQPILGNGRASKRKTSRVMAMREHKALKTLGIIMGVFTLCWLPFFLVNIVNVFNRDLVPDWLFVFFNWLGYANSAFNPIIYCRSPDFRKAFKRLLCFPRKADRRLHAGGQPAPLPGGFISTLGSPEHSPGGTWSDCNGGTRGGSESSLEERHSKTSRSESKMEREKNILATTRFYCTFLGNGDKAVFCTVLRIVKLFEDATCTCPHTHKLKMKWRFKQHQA
Compound,"IC50 [1, 3]",Gain (grams) ([2]; 3 ppm in diet),Gain (grams) ([2]; 6 ppm in diet),Gain (grams) ([2]; 12 ppm in diet),% Reduction in fat pad weight vs controls ([2]; 25 ppm in diet),Gain (grams) ([2]; 25 ppm in diet),% Reduction in fat pad weight vs controls ([2]; 50 ppm in diet),Gain (grams) ([2]; 50 ppm in diet),% Reduction in fat pad weight vs controls ([2]; 100 ppm in diet),Gain (grams) ([2]; 100 ppm in diet),Gain (grams) ([2]; 200 ppm in diet),IC50 [1]
"CC(C)NCC(O)c1cccc(C#N)c1 (stereo not drawn) [the 4th table, row 4 drawing]",> 100 µM,–,–,–,–,–,–,–,–,–,–,–
CC(C)(C)NCC(O)c1cccc(C#N)c1 (stereo not drawn) [the 3rd table drawing],–,29.3 grams,37.4 grams,30.5 grams,+5.2%,35.9 grams,-11.6%,41.1 grams,-16.9%,36.1 grams,33.2 grams,–
CC(C)NCC(O)c1cccc(C#N)c1 (stereo not drawn) [the 2nd table drawing],–,32.4 grams,23.4 grams,29.4 grams,–,37.1 grams,–,37.4 grams,-9.1%,37.3 grams,39.0 grams,–
"CC(C)(C)NCC(O)c1cccc(C#N)c1 (stereo not drawn) [the 4th table, row 5 drawing]",> 100 µM,–,–,–,–,–,–,–,–,–,–,–
"CC(C)(C)NCC(O)c1cc(Cl)c(N)c(Cl)c1 (stereo not drawn) [Clenbuterol, reference compound]",–,–,–,–,–,–,–,–,–,–,–,0.977 µM
